Laboratory results published in patent US11603546B2, “Method for preparing modified starch and use thereof” (Qilu University of Technology, priority 2020, dated 2023).
Marks after values point to notes of the source that are not given here.

What was measured:
[1] = tested on: mice with type II diabetes (STZ injection plus high-glucose-high-fat diet); assay: Type II diabetes mouse model: TC, TG, HDL-C, LDL-C; type: in vivo, Kunming strain mice; conditions: diabetic mice, gavage once daily, four weeks
Description: Fifty mice were pregrouped and labeled. In the experiment, type II diabetes models were established by streptozotocin (STZ) injection plus induction by high-glucose-high-fat diet. […] The mice were randomized into five groups of 10 animals: normal group, diabetic control group, glimepiride group, RS group, and modified starch+GSPAs group; before modeling, the mice were weighed. […] The normal group was fed with normal diet for three weeks, while the remaining four groups were fed with high-glucose-high-fat diet for three weeks; then, the animals were deprived of food hut not water for 12 h; […] (which was prepared with 0.1 mol/L citric acid-sodium citrate buffer solution [pH 4.4 (4.2-4.5)] at a low temperature) was prepared when needed, and was injected intraperitoneally at a single dose of 50 mg/kg (0.5 mg/10 g) of body weight within 30 min; the mice in the normal group were given isodose citric acid-sodium citrate buffer solution and injected at a dose of 50 mg/kg every three days, during which the mice were fed with high-glucose-high-fat diet. After 72 h, the mice were deprived of food but not water for 12 h, and blood was collected from the tail vein to test the fasting blood glucose (FBG); the mice with FBG≥12 mmol/1, with obesity and polyuria were considered as the criteria for successful modeling. Ten normal and healthy mice were assigned to the normal group; the remaining successful modeled mice with type II diabetes were grouped into four groups of 10 animals according to the blood glucose level; the test period was four weeks. Specific groups are listed in Table 2: bw represents body weight. [table] Instructions for gavage dosing: The mice were administered by gavage once daily, in a volume of 0.4 mL. Also, total cholesterol (TC), triglyceride (TG), and low density lipoprotein cholesterol (LDL-C) were tested for diabetic mice, as shown in Table 3.

[2] = tested on: mice with type II diabetes (STZ injection plus high-glucose-high-fat diet); assay: Type II diabetes mouse model: HE staining of liver sections; type: in vivo, Kunming strain mice; conditions: diabetic mice, intervention groups (FIGS. 9 to 13)
Description: Fifty mice were pregrouped and labeled. In the experiment, type II diabetes models were established by streptozotocin (STZ) injection plus induction by high-glucose-high-fat diet. […] The mice were randomized into five groups of 10 animals: normal group, diabetic control group, glimepiride group, RS group, and modified starch+GSPAs group; before modeling, the mice were weighed.
The normal group was fed with normal diet for three weeks, while the remaining four groups were fed with high-glucose-high-fat diet for three weeks; then, the animals were deprived of food hut not water for 12 h; […] (which was prepared with 0.1 mol/L citric acid-sodium citrate buffer solution [pH 4.4 (4.2-4.5)] at a low temperature) was prepared when needed, and was injected intraperitoneally at a single dose of 50 mg/kg (0.5 mg/10 g) of body weight within 30 min; the mice in the normal group were given isodose citric acid-sodium citrate buffer solution and injected at a dose of 50 mg/kg every three days, during which the mice were fed with high-glucose-high-fat diet. After 72 h, the mice were deprived of food but not water for 12 h, and blood was collected from the tail vein to test the fasting blood glucose (FBG); the mice with FBG≥12 mmol/1, with obesity and polyuria were considered as the criteria for successful modeling. […]

CCC1=C(C)CN(C(=O)NCCc2ccc(S(=O)(=O)NC(=O)N[C@H]3CC[C@H](C)CC3)cc2)C1=O [Glimepiride, glimepiride]
High density lipid cholesterol (HDL-C) [1]: 2.26 ± 0.31^a mmol/L | LDL-C [1]: 0.65 ± 0.17^b mmol/L | TC [1]: 3.16 ± 0.37^b mmol/L | TG [1]: 1.06 ± 0.09^b mmol/L | HE staining of liver sections [2]: improve symptoms of disordered liver cells and massive inflammatory cell infiltration
